Read-outs that look alike come from different tables or passages of the source.
Key:
[1] = tested on: EGFR wild-type cell line A431; assay: Cell proliferation inhibition experiment (CellTiter-Glo), A431; format: cell-based; settings: A431 cells, Cell Titer-Glo, read-out: A431 EGFR WT IC50
In short: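 Luminescent CellTiter-Glo readout, 30 min at room temperature, after 72 h compound exposure at 37° C., 5% CO2 with 0.1% DMSO final. EGFR wild-type A431 cells were seeded at 800 per well and grown 24 h before dosing. IC50 derived from the dose-response.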

wild-type EGFR = biological target: T1, wild-type EGFR (Homo sapiens, UniProt P00533); assay: Enzymology experiment in vitro (HTRF/FRET kinase activity), wild-type EGFR; format: biochemical; settings: HTRF KinEASE-TK
T1 construct: purchased Signalchem
In short: (§1)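 Kinase reaction run 40 min at room temperature with peptide and ATP after a 10 min compound–enzyme preincubation. Phosphorylation read as HTRF signal after 1 h with Eu³⁺ antibody, XL665-streptavidin and EDTA (Cisbio KinEASE-TK).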

[2] = biological target: Ba/F3 De119/T790M/C797S EGFR triple mutant cell line (Homo sapiens, UniProt P00533, T790M/C797S, cells depend on it, form not given); assay: Cell proliferation inhibition experiment (CellTiter-Glo), Ba/F3 De119/T790M/C797S; format: cell-based; settings: Ba/F3 Del19/T790M/C797S EGFR triple mutant cells, 72 hours, Cell Titer-Glo; read-out: Ba/F3 (Del19/T790M/C797S) IC50
[3] = biological target: T2, L858R/T790M/C797S triple mutant EGFR (Homo sapiens, UniProt P00533, C797S/L858R/T790M); assay: Enzymology experiment in vitro (HTRF/FRET kinase activity), L858R/T790M/C797S triple mutant EGFR; format: biochemical; settings: HTRF KinEASE-TK
T2 construct: purchased Signalchem
In short: as §1

[4] = biological target: Ba/F3 L858R/T790M/C797S EGFR triple mutant cell line (Homo sapiens, UniProt P00533, T790M/C797S/L858R, cells depend on it); assay: Cell proliferation inhibition experiment (CellTiter-Glo), Ba/F3 L858R/T790M/C797S; format: cell-based; settings: 72 hours, Cell Titer-Glo, read-out: Ba/F3 (L858R/T790M/C797S) IC50
[5] = read-out: EGFR (L858R/T790M/C797S) IC50

T1 sequence (P00533 25-1210): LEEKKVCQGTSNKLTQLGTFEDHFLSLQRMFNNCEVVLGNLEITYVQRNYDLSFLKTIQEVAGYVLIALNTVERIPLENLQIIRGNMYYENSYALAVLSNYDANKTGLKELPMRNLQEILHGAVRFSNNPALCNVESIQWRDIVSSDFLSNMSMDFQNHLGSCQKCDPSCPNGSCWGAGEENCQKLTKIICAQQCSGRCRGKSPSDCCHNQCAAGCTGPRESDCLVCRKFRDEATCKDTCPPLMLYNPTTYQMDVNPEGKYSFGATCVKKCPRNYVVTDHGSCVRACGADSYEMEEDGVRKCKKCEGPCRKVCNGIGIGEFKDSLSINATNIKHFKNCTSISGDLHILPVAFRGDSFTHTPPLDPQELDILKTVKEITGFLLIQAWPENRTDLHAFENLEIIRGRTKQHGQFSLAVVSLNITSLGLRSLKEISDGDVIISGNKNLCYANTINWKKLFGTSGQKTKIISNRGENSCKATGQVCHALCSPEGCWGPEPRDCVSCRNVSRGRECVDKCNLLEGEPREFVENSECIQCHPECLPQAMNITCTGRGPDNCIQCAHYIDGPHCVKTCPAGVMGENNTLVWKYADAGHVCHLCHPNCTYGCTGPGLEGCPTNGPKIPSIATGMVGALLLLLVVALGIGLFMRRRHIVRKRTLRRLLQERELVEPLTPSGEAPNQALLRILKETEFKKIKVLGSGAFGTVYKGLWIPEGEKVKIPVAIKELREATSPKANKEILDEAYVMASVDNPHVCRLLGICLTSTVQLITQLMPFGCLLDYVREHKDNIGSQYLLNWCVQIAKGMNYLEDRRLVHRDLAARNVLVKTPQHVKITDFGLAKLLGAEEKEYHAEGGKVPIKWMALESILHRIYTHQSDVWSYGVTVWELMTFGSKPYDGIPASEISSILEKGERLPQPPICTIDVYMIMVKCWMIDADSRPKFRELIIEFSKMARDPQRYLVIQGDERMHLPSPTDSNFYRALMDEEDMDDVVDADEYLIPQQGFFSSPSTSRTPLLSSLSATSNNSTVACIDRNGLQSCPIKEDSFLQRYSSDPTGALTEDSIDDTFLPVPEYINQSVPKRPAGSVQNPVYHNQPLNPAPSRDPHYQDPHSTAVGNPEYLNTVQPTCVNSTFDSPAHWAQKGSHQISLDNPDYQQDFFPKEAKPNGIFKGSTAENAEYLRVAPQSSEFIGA
T2 sequence (P00533 25-1210 T790M/C797S/L858R): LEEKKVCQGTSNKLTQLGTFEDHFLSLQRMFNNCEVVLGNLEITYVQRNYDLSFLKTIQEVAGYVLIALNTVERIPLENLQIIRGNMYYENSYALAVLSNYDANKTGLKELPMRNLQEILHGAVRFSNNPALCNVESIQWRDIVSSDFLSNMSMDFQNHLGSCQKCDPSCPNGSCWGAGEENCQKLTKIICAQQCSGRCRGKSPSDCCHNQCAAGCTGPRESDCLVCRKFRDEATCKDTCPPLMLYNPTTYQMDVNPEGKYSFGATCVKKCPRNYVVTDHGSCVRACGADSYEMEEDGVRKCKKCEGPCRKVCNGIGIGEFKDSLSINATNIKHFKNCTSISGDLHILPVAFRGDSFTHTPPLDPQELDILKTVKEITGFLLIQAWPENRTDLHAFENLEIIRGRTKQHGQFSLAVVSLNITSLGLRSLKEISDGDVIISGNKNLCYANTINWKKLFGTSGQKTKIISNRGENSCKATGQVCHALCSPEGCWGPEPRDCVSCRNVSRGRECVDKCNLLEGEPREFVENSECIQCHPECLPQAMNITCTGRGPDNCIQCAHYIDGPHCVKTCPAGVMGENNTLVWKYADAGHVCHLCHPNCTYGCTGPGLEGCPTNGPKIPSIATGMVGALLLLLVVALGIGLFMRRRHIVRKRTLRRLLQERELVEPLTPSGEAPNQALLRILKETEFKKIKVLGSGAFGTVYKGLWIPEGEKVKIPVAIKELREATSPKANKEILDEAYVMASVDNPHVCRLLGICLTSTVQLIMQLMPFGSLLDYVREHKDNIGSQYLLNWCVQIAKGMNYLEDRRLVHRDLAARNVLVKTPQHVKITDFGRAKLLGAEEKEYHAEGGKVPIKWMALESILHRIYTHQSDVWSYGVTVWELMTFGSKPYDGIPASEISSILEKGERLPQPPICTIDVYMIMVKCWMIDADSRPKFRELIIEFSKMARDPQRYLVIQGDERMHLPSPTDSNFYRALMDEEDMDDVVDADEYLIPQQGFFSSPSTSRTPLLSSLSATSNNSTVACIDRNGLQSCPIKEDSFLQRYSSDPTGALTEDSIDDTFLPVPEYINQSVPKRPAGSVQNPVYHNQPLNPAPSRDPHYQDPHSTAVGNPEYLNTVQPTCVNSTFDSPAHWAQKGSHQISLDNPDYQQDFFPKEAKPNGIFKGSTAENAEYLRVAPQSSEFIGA
Chain of Ba/F3 L858R/T790M/C797S EGFR triple mutant cell line (P00533 whole entry T790M/C797S/L858R): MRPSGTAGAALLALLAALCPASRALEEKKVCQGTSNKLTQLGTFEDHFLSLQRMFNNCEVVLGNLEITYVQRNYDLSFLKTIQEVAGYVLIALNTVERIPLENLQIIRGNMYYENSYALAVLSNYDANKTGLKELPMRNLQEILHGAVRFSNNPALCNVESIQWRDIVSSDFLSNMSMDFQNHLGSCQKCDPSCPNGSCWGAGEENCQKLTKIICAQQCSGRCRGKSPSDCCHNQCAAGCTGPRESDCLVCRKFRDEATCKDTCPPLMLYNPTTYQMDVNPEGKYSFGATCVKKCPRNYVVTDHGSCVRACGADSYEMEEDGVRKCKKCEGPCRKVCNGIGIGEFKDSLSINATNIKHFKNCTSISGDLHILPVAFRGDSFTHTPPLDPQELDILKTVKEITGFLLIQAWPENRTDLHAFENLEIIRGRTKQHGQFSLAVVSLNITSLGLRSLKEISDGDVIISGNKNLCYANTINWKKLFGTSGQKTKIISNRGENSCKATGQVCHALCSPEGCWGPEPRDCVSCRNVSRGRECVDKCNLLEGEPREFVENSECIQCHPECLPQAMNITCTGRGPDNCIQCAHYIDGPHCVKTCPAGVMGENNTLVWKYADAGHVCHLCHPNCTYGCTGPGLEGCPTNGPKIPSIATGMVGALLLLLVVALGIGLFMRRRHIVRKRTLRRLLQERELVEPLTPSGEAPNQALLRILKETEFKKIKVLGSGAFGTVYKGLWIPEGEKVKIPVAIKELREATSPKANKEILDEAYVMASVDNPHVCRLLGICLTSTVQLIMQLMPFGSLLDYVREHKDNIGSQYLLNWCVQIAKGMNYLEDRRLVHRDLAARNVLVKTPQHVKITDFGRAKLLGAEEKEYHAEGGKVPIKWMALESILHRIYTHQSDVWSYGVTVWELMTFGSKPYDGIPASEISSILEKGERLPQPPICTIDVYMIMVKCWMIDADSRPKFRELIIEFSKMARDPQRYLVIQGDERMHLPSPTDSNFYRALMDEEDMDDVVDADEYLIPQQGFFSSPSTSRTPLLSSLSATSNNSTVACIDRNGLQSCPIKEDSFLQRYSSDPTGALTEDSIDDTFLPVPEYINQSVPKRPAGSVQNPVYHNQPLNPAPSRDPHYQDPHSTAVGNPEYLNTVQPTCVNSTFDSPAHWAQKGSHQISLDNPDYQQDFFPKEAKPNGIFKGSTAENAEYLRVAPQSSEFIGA
Chain of Ba/F3 De119/T790M/C797S EGFR triple mutant cell line (P00533 with tags, fused parts or gaps DEL746-750/T790M/C797S, form open): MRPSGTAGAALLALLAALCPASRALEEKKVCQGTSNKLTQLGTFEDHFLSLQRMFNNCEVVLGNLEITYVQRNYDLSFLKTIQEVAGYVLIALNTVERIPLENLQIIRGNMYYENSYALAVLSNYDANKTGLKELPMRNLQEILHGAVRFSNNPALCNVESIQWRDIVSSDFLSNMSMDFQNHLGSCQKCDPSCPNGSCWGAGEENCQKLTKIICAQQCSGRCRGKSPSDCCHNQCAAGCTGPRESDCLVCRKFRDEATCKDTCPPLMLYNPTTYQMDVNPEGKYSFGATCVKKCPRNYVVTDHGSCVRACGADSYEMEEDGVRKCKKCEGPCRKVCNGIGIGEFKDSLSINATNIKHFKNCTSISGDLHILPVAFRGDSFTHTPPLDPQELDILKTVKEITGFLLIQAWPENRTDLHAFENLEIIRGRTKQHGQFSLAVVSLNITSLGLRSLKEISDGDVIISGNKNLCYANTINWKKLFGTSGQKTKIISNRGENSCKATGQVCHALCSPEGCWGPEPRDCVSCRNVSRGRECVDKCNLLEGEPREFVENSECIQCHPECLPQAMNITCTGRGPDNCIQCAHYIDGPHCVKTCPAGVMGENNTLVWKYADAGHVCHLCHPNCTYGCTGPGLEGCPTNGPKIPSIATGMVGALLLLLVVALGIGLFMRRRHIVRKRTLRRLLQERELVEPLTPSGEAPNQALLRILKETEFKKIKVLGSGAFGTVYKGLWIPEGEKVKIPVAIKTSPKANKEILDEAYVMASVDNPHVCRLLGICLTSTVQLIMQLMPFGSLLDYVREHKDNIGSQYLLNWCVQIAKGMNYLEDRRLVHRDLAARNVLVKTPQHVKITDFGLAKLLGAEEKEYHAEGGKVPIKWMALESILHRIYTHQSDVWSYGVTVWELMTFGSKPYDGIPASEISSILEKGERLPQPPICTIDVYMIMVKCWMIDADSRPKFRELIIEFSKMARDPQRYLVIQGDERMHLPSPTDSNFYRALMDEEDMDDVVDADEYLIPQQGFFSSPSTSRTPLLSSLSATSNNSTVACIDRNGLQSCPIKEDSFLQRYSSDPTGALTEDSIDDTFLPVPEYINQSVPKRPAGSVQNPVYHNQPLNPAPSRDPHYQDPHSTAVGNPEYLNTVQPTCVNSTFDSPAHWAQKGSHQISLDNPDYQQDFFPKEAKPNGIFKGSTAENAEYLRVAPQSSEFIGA

| SMILES | IC50 ([1]; Homo sapiens, A-431, 72 h) | IC50 (wild-type EGFR; read-out: EGFR (WT) IC50) | GI50 [2] | IC50 [3, 5] | GI50 [4] | IC50 ([1]; Homo sapiens, A-431, 72 hours) | IC50 (wild-type EGFR; EGFR (WT) IC50(nM)) | IC50 ([3]; EGFR (L858R/T790M/C797S) IC50(nM)) | IC50 ([1]; 72 hours) |
| --- | --- | --- | --- | --- | --- | --- | --- | --- | --- |
| COc1cc(N2CCC(N(C)C)C(F)C2)c(-c2cnn(C)c2)cc1Nc1ncc(Br)c(Nc2ccc3nccnc3c2P(C)(C)=O)n1 (centres unmarked) [compound 216] | 45.7 nM | 1.71 nM | 2.06 nM | 0.29 nM | 7.32 nM |  |  |  |  |
| COc1cc(N2CCN(CC3COC3)CC2)c(-c2cnn(C)c2)cc1Nc1ncc(Br)c(Nc2ccc3nccnc3c2P(C)(C)=O)n1 [compound 219, (6-((5-Bromo-2-((2-methoxy-5-(1-methyl-1H-pyrazol-4-yl)-4-(4-(oxetan-3-ylmethyl)piperazin-1-yl)phenyl)amino)pyrimidin-4-yl)amino)quinoxalin-5-yl)dimethylphosphine oxide] | 32.1 nM | 1.66 nM | 1.1 nM | 0.12 nM | 1.08 nM |  |  |  |  |
| COc1cc(N2CCN(CCC(F)F)CC2)c(-c2cnn(C)c2)cc1Nc1ncc(Br)c(Nc2ccc3nccnc3c2P(C)(C)=O)n1 [compound 222, (6-((5-Bromo-2-((4-(4-(3,3-difluoropropyl)piperazin-1-yl)-2-methoxy-5-(1-methyl-1H-pyrazol-4-yl)phenyl)amino)pyrimidin-4-yl)amino)quinoxalin-5-yl)dimethylphosphine oxide] | 70.4 nM | 4.22 nM | 1.22 nM | 0.3 nM | 2.02 nM |  |  |  |  |
| COc1cc(N2CCC3(CC2)CN(C(C)C)CC(C)(C)O3)c(-c2cnn(C)c2)cc1Nc1ncc(Br)c(Nc2ccc3nccnc3c2P(C)(C)=O)n1 [compound 224, (6-((5-Bromo-2-((4-(4-isopropyl-2,2-dimethyl-1-oxa-4,9-diazaspiro [5.5]undecane-9-yl)-2-methoxy-5-(1-methyl-1H-pyrazol-4-yl)phenyl)amino)pyrimidin-4-yl)amino)quinoxalin-5-yl)dimethylphosphine oxide] | 336 nM | 10.7 nM | 8.88 nM | 4.31 nM | 13.2 nM |  |  |  |  |
| COc1cc(N2CCC(OCC3CC3)CC2)c(-c2cnn(C)c2)cc1Nc1ncc(Br)c(Nc2ccc3ncccc3c2P(C)(C)=O)n1 [compound 225] | 370 nM | 10.8 nM | 3.54 nM | 1.96 nM | 11.3 nM |  |  |  |  |
| CCN1CCC2(CC1)CCN(c1cc(OC)c(Nc3ncc(Br)c(Nc4ccc5nccnc5c4P(C)(C)=O)n3)cc1-c1cnn(C)c1)CC2 [compound 226] | 47.4 nM | 1.4 nM | 1.55 nM | 0.19 nM | 4.34 nM |  |  |  |  |
| COc1cc(N2CCC3CCN(CC4CC4)C3C2)c(-c2cnn(C)c2)cc1Nc1ncc(Br)c(Nc2ccc3nccnc3c2P(C)(C)=O)n1 (centres unmarked) [compound 227] | 34.7 nM | 2.69 nM | 2.78 nM | 0.59 nM | 6.64 nM |  |  |  |  |
| COc1cc(N2CCC3(CC2)CCN(C(C)C)CC3)c(-c2cnn(C)c2)cc1Nc1ncc(Br)c(Nc2ccc3nccnc3c2P(C)(C)=O)n1 [compound 228] | 44.8 nM | 1.04 nM | 4.58 nM | 0.48 nM | 8.5 nM |  |  |  |  |
| COc1cc(N2CCN(C3(C)CC3)CC2)c(-c2cnn(C)c2)cc1Nc1ncc(Br)c(Nc2ccc3nccnc3c2P(C)(C)=O)n1 [compound 229] | 164 nM | 8.53 nM | 3.76 nM | 0.42 nM | 12.1 nM |  |  |  |  |
| COc1cc(N2CCC3(CCN(CCF)CC3)CC2)c(-c2cnn(C)c2)cc1Nc1ncc(Br)c(Nc2ccccc2P(C)(C)=O)n1 [compound 230] | 126 nM | 12 nM | 4.47 nM | 0.29 nM | 10.1 nM |  |  |  |  |
| COc1cc(N2CCC3(CCN(CCF)CC3)CC2)c(-c2cnn(C)c2F)cc1Nc1ncc(Br)c(Nc2ccc3nccnc3c2P(C)(C)=O)n1 [compound 231] | 40.1 nM | 1.12 nM | 1.08 nM | 0.37 nM | 1.12 nM |  |  |  |  |
| COCCN1CCN(C2CCN(c3cc(OC)c(Nc4ncc(Br)c(Nc5ccc6nccnc6c5P(C)(C)=S)n4)cc3-c3cnn(C)c3)CC2)CC1 [compound 232] |  |  | 3.16 nM |  | 8.59 nM | 126 nM | 4.11 nM | 0.58 nM |  |
| COc1cc(N2CCC3(CCN(CCF)CC3)CC2)c(-c2cnn(C)c2)cc1Nc1ncc(Cl)c(Nc2ccc3nccnc3c2P(C)(C)=O)n1 [compound 233] | 79.5 nM | 2.49 nM | 1.74 nM | 0.26 nM | 3.54 nM |  |  |  |  |
| COc1cc(N2CCN(CC3CC3)CC2)c(-c2cnn(C)c2)cc1Nc1ncc(Br)c(Nc2ccc3nccnc3c2P(C)(C)=O)n1 [compound 235] |  | 10.5 nM | 8.53 nM | 0.27 nM | 24.8 nM |  |  |  | 89 nM |
| COc1cc(N2CCN(CC3CC3)CC2)c(-c2cnn(C)c2)cc1Nc1ncc(Br)c(Nc2ccc3cncnc3c2P(C)(C)=O)n1 [compound 236] | 91.5 nM | 11 nM | 5.45 nM | 0.21 nM | 12.7 nM |  |  |  |  |
| COc1cc(N2CCN(CC3(C#N)CC3)CC2)c(-c2cnn(C)c2)cc1Nc1ncc(Br)c(Nc2ccc3nccnc3c2P(C)(C)=O)n1 [compound 237, 1-((4-(4-((5-Bromo-4-((5-(dimethylphosphoryl)quinoxalin-6-yl)amino)pyrimidin-2-yl)amino)-5-methoxy-2-(1-methyl-1H-pyrazol-4-yl)phenyl)piperazin-1-yl)methyl)cyclopropane-1-carbonitrile] | 129 nM | 5.2 nM | 1.26 nM | 0.52 nM | 3.05 nM |  |  |  |  |
| COc1cc(N2CCC3(CCN(CCF)CC3)CC2)c(-c2cnn(C)c2)cc1Nc1ncc(Br)c(Nc2ccc3ncccc3c2P(C)(C)=O)n1 [compound 238] | 61.9 nM | 3.02 nM | 1.83 nM | 0.3 nM | 3.59 nM |  |  |  |  |
| COc1cc(N2CCC(C)(OC)CC2)c(-c2cnn(C)c2)cc1Nc1ncc(Cl)c(Nc2ccc3nccnc3c2P(C)(C)=O)n1 [compound 239] | 141 nM | 7.57 nM | 2.1 nM | 1.6 nM | 4.61 nM |  |  |  |  |
| COc1cc(N2CCC(C)(OC)CC2)c(-c2cnn(C)c2)cc1Nc1ncc(Br)c(Nc2ccccc2P(C)(C)=O)n1 [compound 240] | 304 nM | 29.9 nM | 8.2 nM | 0.51 nM | 19.2 nM |  |  |  |  |
| COc1cc(N2CCC(C)(OC)CC2)c(-c2c[nH]n(C)c2=O)cc1Nc1ncc(Br)c(Nc2ccc3nccnc3c2P(C)(C)=O)n1 [compound 241] | 182 nM | 30.1 nM | 2.92 nM | 0.13 nM | 12.3 nM |  |  |  |  |
| COc1cc(N2CCC3(CCN(CC4(C#N)CC4)CC3)CC2)c(-c2cnn(C)c2)cc1Nc1ncc(Br)c(Nc2ccc3nccnc3c2P(C)(C)=O)n1 [compound 244, 1-((9-(4-((5-Bromo-4-((5-(dimethylphosphoryl)quinoxalin-6-yl)amino)pyrimidin-2-yl)amino)-5-methoxy-2-(1-methyl-1H-pyrazol-4-yl)phenyl)-3,9-diazaspiro[5.5]undecan-3-yl)methyl)cyclopropane-1-carbonitrile] | 125 nM | 2.74 nM | 1.19 nM | 0.78 nM | 2.43 nM |  |  |  |  |
| COc1cc(N2CCC3(CCN(CC(F)(F)F)CC3)CC2)c(-c2cnn(C)c2)cc1Nc1ncc(Br)c(Nc2ccc3nccnc3c2P(C)(C)=O)n1 [compound 245] | 747 nM | 105 nM | 5.35 nM | 2.8 nM | 11.6 nM |  |  |  |  |
| COc1cc(N2CCC3(CC2)CCN(C(C)CF)CC3)c(-c2cnn(C)c2)cc1Nc1ncc(Br)c(Nc2ccc3nccnc3c2P(C)(C)=O)n1 (centres unmarked) [compound 246] | 128 nM | 1.05 nM | 2.59 nM | 0.4 nM | 3.64 nM |  |  |  |  |
| COc1cc(N2CC3CN(CCF)CC3C2)c(-c2cnn(C)c2)cc1Nc1ncc(Br)c(Nc2ccc3nccnc3c2P(C)(C)=O)n1 (centres unmarked) [compound 247, (6-((5-Bromo-2-((4-(5-(2-fluoroethyl)hexahydropyrrolo[3,4-c]pyrrol-2(1H)-yl)-2-methoxy-5-(1-methyl-1H-pyrazol-4-yl)phenyl)amino)pyrimidin-4-yl)amino)quinoxalin-5-yl)dimethylphosphine oxide] | 66.4 nM | 5.81 nM | 3.76 nM | 0.12 nM | 7.76 nM |  |  |  |  |
| COc1cc(N2CCC3(CC2)CCN(C2COC2)CC3)c(-c2cnn(C)c2)cc1Nc1ncc(Br)c(Nc2ccc3nccnc3c2P(C)(C)=O)n1 [compound 248] | 84.7 nM | 1.91 nM | 1.17 nM | 0.29 nM | 2.37 nM |  |  |  |  |

From patent US20230219986A1, “NOVEL AMINOPYRIMIDINE EGFR INHIBITOR” (QILU PHARMACEUTICAL CO., LTD., priority 2020, published 2023)
